Laboratory results taken from US20060083784A1, “Amorphous pharmaceutical compositions” (SmithKline Beecham Corporation, priority 2002, published 2006).
“And” between values parts separate entries of the source, which are not always exact repeats. Identical values can stand only once.

Columns and labels:
[1] = In vitro dissolution assay (modified USP 4 flow cell), Compound I samples; type: physicochemical; conditions: water and acetonitrile (8:2), 37° C., UV 275 nm, hemihydrate
Description: (§1) The equipment used for this procedure is a modified USP 4, the major differences being: 1. low volume cell. 2. stirred cell. 3. retaining filters which are adequate at retaining sub micron material. The total run time is 40 minutes. 2.5 mg of drug (weigh proportionally more formulated material).
(§2) Flow Cell Description: Swinnex filter assemblies obtained from Millipore, having 0.2 micron Cellulose Nitrate membranes. (Millipore, Mass.) as internal filters. The internal volume of the cell is approximately 2 ml. A Small PTFE stirrer customized to fit the Swinnex assembly (Radleys Lab Equipment Halfround Spinvane F37136) is used. The dissolution medium at a flow rate of 5 ml/min is used. The whole set up is placed at a thermostat of 37° C. The drug concentration is measured by passing the eluent through a UV detector having a flow cell dimension of 10 mm. The UV detection is carried out at an appropriate wavelength for the drug.
The experimentation is designed to evaluate drug dissolution rate. As such it is unlikely with poorly soluble drugs, and with water as the dissolution medium, that 100% of the drug will dissolve in the 40 minute duration of the test. To determine the extent of drug solubility over this period one collects all 200 ml of solution that elutes from the dissolution cell.
In vitro dissolution rates of samples 1.1, 1.2 and 1.3 were determined using the protocol described in the experimental section. The dissolution medium was a mixture of water and acetonitrile (8:2), and the wavelength used for drug detection 275 nm.

[2] = In vitro dissolution assay (modified USP 4 flow cell), Compound II samples; type: physicochemical; conditions: 0.1M HCl, 37° C., UV 244 nm
Description: as §1, §2
The experimentation is designed to evaluate drug dissolution rate. As such it is unlikely with poorly soluble drugs, and with water as the dissolution medium, that 100% of the drug will dissolve in the 40 minute duration of the test. To determine the extent of drug solubility over this period one collects all 200 ml of solution that elutes from the dissolution cell. Using a conventional UV spectrophotometer, this solution is compared against a reference solution of 2.5 or 4 mg of active agent dissolved in a suitable medium.
In vitro dissolution rates of samples 2.1, 2.2, 2.3, 2.4, 2.5 and 2.6 were determined using the protocol described in the experimental section. The dissolution medium was 0.1M HCl, and the wavelength used for drug detection 244 nm. An unmilled lot of Compound II was used for comparison.

| Molecule | % Drug Dissolved 10 min ([1]; 10 min) | % Drug Dissolved 20 min ([1]; 20 min) | % Drug Dissolved 30 min ([1]; 30 min) | % Drug Dissolved 40 min ([1]; 40 min) | % Drug Dissolved 10 min ([2]; 10 min) | % Drug Dissolved 20 min ([2]; 20 min) | % Drug Dissolved 30 min ([2]; 30 min) | % Drug Dissolved 40 min ([2]; 40 min) |
| --- | --- | --- | --- | --- | --- | --- | --- | --- |
| 6-Acetyl-3,4-dihydro-2,2-dimethyl-trans(+)-4-(4-fluorobenzoylamino)-2H-benzo[b]pyran-3-ol hemihydrate [Compound I] | 17.4% and 12.1% | 24.3% and 18.2% | 29.4% and 23.2% | 33.8% and 27.8% | – | – | – | – |
| CC[C@H](NC(=O)c1c(O)c(-c2ccccc2)nc2ccccc12)c1ccccc1.Cl [Compound II, 3-Hydroxy-2-phenyl-N-[(1S)-1-phenylpropyl]-4-quinolinecarboxamide monohydrochloride] | – | – | – | – | 3.8% | 6.3% | 8.5% | 10.7% |
